Read-outs that look alike come from different tables or passages of the source.
Assays:
Log P (Table 1) = format: physicochemical
[1] = test system: α-2(a)-(c) adrenergic receptor subtypes; test: α-2 receptor subtype preference, α-2(a)-(c) (Table 1); format: binding
[2] = test system: conjunctival hyperemia / whiteness of eye; conditions: for subjects reporting reduced hyperemia and increased whiteness in the treated eye: […] brimonidine, one eye, 8 human subjects
Description: (§1) The subjects were administered with the drug in one eye and then asked to assess themselves in the mirror to see if they perceived a difference in conjunctival hyperemia between eyes. The assessments were made 5 minutes after the administration and 4 hours after the administration. After the four hours assessment, the drug was re-administered.

nasal congestion = test system: nasal congestion
Description: as §1

eye [3] = conditions: for effectiveness at reducing eye redness: both general eye redness and eye redness induced by drug administration
Description: Redness reduction is on a scale from 0.00 to 4.00 with 0.00 denoting the greatest redness reduction and 4.00 denoting no redness reduction. Whitening is on a scale from 0.00 to 4.00 with 0.00 denoting pearly white, glistening color and 4.00 denoting no whitening effect.

eye [4] = conditions: […] brimonidine
Description: FIG. 13 is a photograph of both eyes of the person before the drug was administered. FIG. 14A is a close-up photograph of the right eye and FIG. 14B is a close-up photograph of the left eye.

[5] = test system: α-2 over α-1 adrenergic receptors
[6] = with or without redness induced by drug administration

Compound	logP (Log P (Table 1))	α-2(a)-(c) [1]	subjects reporting reduced hyperemia and increased whiteness in the treated eye ([2]; 5 min assessment)	subjects reporting reduced hyperemia and increased whiteness in the treated eye ([2]; four hour assessment)	effect on redness and whiteness of eyes ([2]; low dose ([…]) brimonidine, Example 3 conclusion)	subjects reporting reduced nasal congestion in the nostril on the same side as the treated eye (nasal congestion; […] brimonidine, one eye, four hour assessment, 8 human subjects)	effect on nasal congestion (nasal congestion; in several subjects, nostril on the same side as the treated eye, Example 3 conclusion)	further whitening eyes beyond their usual color (eye [3]; after redness inducing drug administration)	effectiveness at reducing eye redness (eye [3])	Other (pH dependence of effect) (eye [3]; in vivo)	cosmetic whitening of an eye (eye [4]; right eye, person with healthy eyes, left eye untreated)	effect on redness and whiteness of an eye (eye [4]; child patient)	effect on redness and whiteness of an eye (eye [4]; patient with glaucoma receiving Lumigan (bimatoprost 0.03%))	Selectivity [5]	further whitening eyes beyond their usual color (eye [3]; [6])	Log P (Log P (Table 1))	Redness Reduction (eye [3]; in vivo)
Brc1c(NC2=NCCN2)ccc2nccnc12 [Brimonidine, brimonidine]	1	general	eight of eight	eight of eight	significant reduction of redness and increase of whiteness	six of eight	reducing nasal congestion	general ineffectiveness	highly effective	>effect lo pH	noticeably cosmetically whitened	significant reduction of redness and increase of whiteness	significant reduction of redness and increase of whiteness	–	–	–	–
Cc1cccc([C@H](C)c2cnc[nH]2)c1C [Dexmedetomidine, dexmedetomidine]	3	general	–	–	–	–	–	–	highly effective	–	–	–	–	1660	generally ineffective	–	–
Oc1ccc2c(c1)C(Cc1c[nH]cn1)CC2 (stereo not shown) [Fadolmidine, fadolmidine]	–	general	–	–	–	–	–	–	–	–	–	–	–	–	–	2.16	–
guanfacine	–	2(a) high	–	–	–	–	–	–	highly effective	>effect hi pH	–	–	–	–	highly effective	–	0.00

Source: patent publication US20140038974A1, “Compositions and Methods for Eye Whitening” (Eye Therapies, LLC, priority 2009, published 2014)
